Earlier results as cited in patent publication US20050089581A1, “Magnesium-containing compositions and methods for enhancing dehydroepiandrosterone levels” (priority 2003, published 2005).

Legend:
[1] = second week, 300 mg DHEA per day orally
platelet aggregation = settings: second week, 300 mg DHEA per day orally
[2] = test system: human coxsackievirus B4 strain
[3] = administration of DHEA, its esters, or salts thereof; W. Regelson et al.
DHEA levels = settings: oral administration

| Compound | mean serum DHEA-S level ([1]; DHEA group, baseline 316.2, placebo 260.5+/−56.7) [µg/dL] | mean serum DHEA ([1]; treated group, baseline 5.83+/−3.9, placebo 5.58+/−4.1) [ng/mL] | subjects with slower rate of platelet aggregation and need for higher arachidonic acid concentration to initiate aggregation (platelet aggregation) | mortality ([2]; infection with 100,000 plaque forming units/animal, about 90% mortality in infected animals without treatment) [%] | elevation in the number of antibody forming cells ([2]; within the animal, DHEA administered) [%] | side effects [3] | effect on DHEA levels (DHEA levels) |
| --- | --- | --- | --- | --- | --- | --- | --- |
| C[C@]12CCC(O)CC1=CC[C@@H]1[C@@H]2CC[C@]2(C)C(=O)CC[C@@H]12 (stereo partly shown) [DHEA, 3-hydroxyandrost-5-en-17-one] | 1451.9 ± 56.7 | 28.7 ± 13.9 | Four of the five test subjects | 37 | 80 | mild androgenic effects and hirsutism |  |
| magnesium taurate |  |  |  |  |  |  | does not increase DHEA levels |
